Common to all, as to assay type: functional
The subject of assay [1] is Pseudomonas aeruginosa. Put plainly: Antibacterial activity against Pseudomonas aeruginosa PAO1. The note with it: Pseudomonas aeruginosa, PAO1; read-out: MIC.
In assay [2] the test system is Enterococcus faecalis. Nature of the assay: Antibacterial activity against Enterococcus faecalis ATCC 29212. As to conditions: Enterococcus faecalis, ATCC 29212; read-out: MIC.
The subject of assay [3] is Streptococcus pneumoniae. Nature of the assay: Antibacterial activity against Streptococcus pneumoniae IID554. As to conditions: Streptococcus pneumoniae, IID554; read-out: MIC.
Assay [4] deals with Acinetobacter baumannii. Nature of the assay: Antibacterial activity against Acinetobacter baumannii IID876. As to conditions: Acinetobacter baumannii, IID876; read-out: MIC.
Assay [5] has as its system Escherichia coli. Nature of the assay: Antibacterial activity against Escherichia coli ATCC 25922. The note with it: Escherichia coli, ATCC 25922; read-out: MIC.
Assay [6] deals with Enterococcus faecium. Nature of the assay: Antibacterial activity against VanA-type vancomycin-resistant Enterococcus faecium A2373. As to conditions: Enterococcus faecium, A2373; read-out: MIC.
Assay [7] concerns Staphylococcus aureus. Nature of the assay: Antibacterial activity against Staphylococcus aureus Smith. As to conditions: Staphylococcus aureus, Smith; read-out: MIC.
The test system of assay [8] is Staphylococcus aureus. Nature of the assay: Ratio of MIC for quinolone-resistant Staphylococcus aureus MS5935 to MIC for quinolone-sensitive Staphylococcus aureus.
Assay [9] has as its system Moraxella catarrhalis. Nature of the assay: Antibacterial activity against Moraxella catarrhalis ATCC 25238. As to conditions: Moraxella catarrhalis, ATCC 25238; read-out: MIC.

Converted amounts (≈) assume the structure as drawn.

By MIC is commonly meant the lowest concentration found to suppress growth. On to `O=C1CSc2ccc(CNC34CCC(C[C@]5(O)Cn6c(=O)ccc7ncc(F)c5c76)(CC3)OC4)nc2N1`, for which the MIC in [1] is 16 µg/mL (≈ 30.6 µM); in [2], 2 µg/mL (≈ 3.82 µM); in assay [3], 0.5 µg/mL (≈ 0.955 µM); in [4], 2 µg/mL (≈ 3.82 µM); in assay [5], 4 µg/mL (≈ 7.64 µM); in [6], 8 µg/mL (≈ 15.3 µM). Besides, the MIC in assay [7] was determined as 0.25 µg/mL (≈ 0.477 µM).
Turning to `Cn1c(=O)c(CNC23CCC(C[C@]4(O)Cn5c(=O)ccc6ncc(F)c4c65)(CC2)OC3)cc2ccccc21`, the MIC in [1] was 64 µg/mL (≈ 124 µM); in assay [2], 64 µg/mL (≈ 124 µM); in assay [3], 8 µg/mL (≈ 15.5 µM); in assay [4], 64 µg/mL (≈ 124 µM); in assay [5], 64 µg/mL (≈ 124 µM); in assay [6], 64 µg/mL (≈ 124 µM). For the same compound, the MIC in assay [7] was 16 µg/mL (≈ 31 µM). For the same compound, the Ratio in [8] is reported as less than 4.
In the case of `O=C1COc2cnc(CNC34CCC(C[C@]5(O)Cn6c(=O)ccc7ncc(F)c5c76)(CC3)OC4)cc2N1`, the MIC was 32 µg/mL (≈ 63.1 µM) in assay [1]; 8 µg/mL (≈ 15.8 µM) in [2]; 4 µg/mL (≈ 7.88 µM) in assay [3]; 32 µg/mL (≈ 63.1 µM) in assay [4]; 16 µg/mL (≈ 31.5 µM) in [5]; 32 µg/mL (≈ 63.1 µM) in assay [6]. In assay [7], the MIC was 4 µg/mL (≈ 7.88 µM).
In the case of `O=c1ccc2ncc(F)c3c2n1C[C@@]3(O)CC12CCC(NCc3cc(Cl)c4c(c3Cl)OCCO4)(CC1)CO2`, the MIC in assay [9] is 2 µg/mL (≈ 3.56 µM); in assay [1], 32 µg/mL (≈ 56.9 µM); in [2] it was 4 µg/mL (≈ 7.11 µM); in [3], 0.25 µg/mL (≈ 0.445 µM); in assay [4], 32 µg/mL (≈ 56.9 µM); in [5], 32 µg/mL (≈ 56.9 µM). The MIC was determined as 16 µg/mL (≈ 28.4 µM) in assay [6] and 0.5 µg/mL (≈ 0.889 µM) in assay [7].
With `O=C1COc2ccc(CNC34CCC(C[C@]5(O)Cn6c(=O)ccc7ncc(F)c5c76)(CC3)OC4)cc2N1`, the MIC in assay [1] amounted to 16 µg/mL (≈ 31.6 µM); in assay [2], 4 µg/mL (≈ 7.9 µM); in assay [3], 1 µg/mL (≈ 1.97 µM); in [4], 8 µg/mL (≈ 15.8 µM); in assay [5] it was 6 µg/mL (≈ 11.8 µM); in assay [6], 16 µg/mL (≈ 31.6 µM). Moreover, the MIC in assay [7] was 1.5 µg/mL (≈ 2.96 µM).
`O=c1ccc2ncc(F)c3c2n1C[C@@]3(O)CC12CCC(NC/C=C/c3ccc(F)cc3)(CC1)CO2`: the MIC in assay [1] was 64 µg/mL (≈ 133 µM); in [2] it was 16 µg/mL (≈ 33.4 µM); in assay [3], 4 µg/mL (≈ 8.34 µM); in assay [4], 32 µg/mL (≈ 66.7 µM); in [5] it was 64 µg/mL (≈ 133 µM); in assay [6], 32 µg/mL (≈ 66.7 µM). Also, in assay [7], the MIC came to 0.5 µg/mL (≈ 1.04 µM).
On to `O=c1ccc2ncc(F)c3c2n1C[C@@]3(O)CC12CCC(NC/C=C/c3c(F)cccc3F)(CC1)CO2`, for which the MIC in assay [1] stood at 32 µg/mL (≈ 64.3 µM); in [2], 4 µg/mL (≈ 8.04 µM); in assay [3], 0.25 µg/mL (≈ 0.502 µM); in assay [4], 2 µg/mL (≈ 4.02 µM); in assay [5], 16 µg/mL (≈ 32.2 µM); in [6], 8 µg/mL (≈ 16.1 µM). The minimum inhibitory concentration (MIC) in assay [7] is 0.063 µg/mL (≈ 0.127 µM). Also, the Ratio in assay [8] was less than 4.
For the compound `O=c1ccc2ncc(F)c3c2n1C[C@@]3(O)CC12CCC(NCc3ccc4c(c3)OCO4)(CC1)CO2`, the MIC in assay [9] was found to be 4 µg/mL (≈ 8.34 µM); in [1], 32 µg/mL (≈ 66.7 µM); in assay [2] it was 4 µg/mL (≈ 8.34 µM); in [3], 0.5 µg/mL (≈ 1.04 µM); in assay [4] it was 4 µg/mL (≈ 8.34 µM); in [5], 32 µg/mL (≈ 66.7 µM). Also, the MIC is 16 µg/mL (≈ 33.4 µM) in [6] and 0.5 µg/mL (≈ 1.04 µM) in assay [7].
On to `O=c1ccc2ncc(F)c3c2n1C[C@@]3(O)CC12CCC(NC/C(F)=C\c3cc(F)ccc3F)(CC1)CO2`, for which the MIC in assay [1] turned out to be 16 µg/mL (≈ 31 µM); in [2] it was 4 µg/mL (≈ 7.76 µM); in assay [3], 1 µg/mL (≈ 1.94 µM); in assay [4], 16 µg/mL (≈ 31 µM); in assay [5], 16 µg/mL (≈ 31 µM); in [6], 16 µg/mL (≈ 31 µM). Moreover, in assay [7], the MIC stood at 0.25 µg/mL (≈ 0.485 µM). In addition, the Ratio in assay [8] is listed as less than 4.
For the compound `O=c1ccc2ncc(F)c3c2n1C[C@@]3(O)CC12CCC(NCc3ccc4c(c3)OC(F)(F)O4)(CC1)CO2`, the MIC in [9] was 4 µg/mL (≈ 7.76 µM); in [1], 32 µg/mL (≈ 62.1 µM); in [2], 8 µg/mL (≈ 15.5 µM); in [3] it was 1 µg/mL (≈ 1.94 µM); in assay [4] it was 32 µg/mL (≈ 62.1 µM); in [5], 32 µg/mL (≈ 62.1 µM). Moreover, the MIC in [6] is 32 µg/mL (≈ 62.1 µM); in assay [7] it was 0.25 µg/mL (≈ 0.485 µM).
Regarding `O=c1ccc2ncc(F)c3c2n1C[C@@]3(O)CC12CCC(NCc3ncc4c(c3Cl)OCCO4)(CC1)CO2`, the MIC in assay [9] was found to be 32 µg/mL (≈ 60.5 µM); in assay [1], 32 µg/mL (≈ 60.5 µM); in assay [2] it was 8 µg/mL (≈ 15.1 µM); in assay [3], 1 µg/mL (≈ 1.89 µM); in assay [4], 32 µg/mL (≈ 60.5 µM); in assay [5], 32 µg/mL (≈ 60.5 µM). For the same compound, the MIC came out at 32 µg/mL (≈ 60.5 µM) in assay [6] and 2 µg/mL (≈ 3.78 µM) in [7].
For the compound `O=c1ccc2ncc(F)c3c2n1C[C@@]3(O)CC12CCC(NC/C=C/c3ccccn3)(CC1)CO2`, the MIC came to 64 µg/mL (≈ 138 µM) in [1]; 32 µg/mL (≈ 69.2 µM) in [2]; 4 µg/mL (≈ 8.65 µM) in assay [3]; 32 µg/mL (≈ 69.2 µM) in assay [4]; 64 µg/mL (≈ 138 µM) in assay [5]; 64 µg/mL (≈ 138 µM) in [6]. Moreover, in assay [7], the MIC was 1 µg/mL (≈ 2.16 µM). The Ratio in [8] is given as less than 4.
Turning to `O=c1ccc2ncc(F)c3c2n1C[C@@]3(O)CC12CCC(NC/C=C/c3cc(F)ccc3F)(CC1)CO2`, the MIC in assay [1] was 8 µg/mL (≈ 16.1 µM); in assay [2], 4 µg/mL (≈ 8.04 µM); in [3], 0.25 µg/mL (≈ 0.502 µM); in assay [4], 0.25 µg/mL (≈ 0.502 µM); in [5], 4 µg/mL (≈ 8.04 µM); in assay [6], 8 µg/mL (≈ 16.1 µM). Moreover, the MIC in assay [7] stood at 0.063 µg/mL (≈ 0.127 µM). The Ratio in assay [8] is reported as less than 4.
In the case of `O=c1ccc2ncc(F)c3c2n1C[C@@]3(O)CC12CCC(NC/C=C/c3ccccc3)(CC1)CO2`, the MIC was determined as 64 µg/mL (≈ 139 µM) in assay [1]; 4 µg/mL (≈ 8.67 µM) in assay [2]; 0.5 µg/mL (≈ 1.08 µM) in assay [3]; 4 µg/mL (≈ 8.67 µM) in [4]; 32 µg/mL (≈ 69.3 µM) in [5]; 8 µg/mL (≈ 17.3 µM) in [6]. Further, in assay [7], the MIC was determined as 0.125 µg/mL (≈ 0.271 µM).
Regarding `O=c1ccc2ncc(F)c3c2n1C[C@@]3(O)CC12CCC(NCc3ccc4c(c3)OCCO4)(CC1)CO2`, the MIC in [9] was 0.5 µg/mL (≈ 1.01 µM); in [1] it was 32 µg/mL (≈ 64.8 µM); in assay [2], 2 µg/mL (≈ 4.05 µM); in assay [3], 0.25 µg/mL (≈ 0.507 µM); in [4] it was 4 µg/mL (≈ 8.1 µM); in assay [5] it was 16 µg/mL (≈ 32.4 µM). In addition, the MIC in assay [6] amounted to 4 µg/mL (≈ 8.1 µM); in assay [7] it was 0.12 µg/mL (≈ 0.243 µM).
`O=c1ccc2ncc(F)c3c2n1C[C@@]3(O)CC12CCC(NCc3cc4c(cc3F)OCCO4)(CC1)CO2`: the minimum inhibitory concentration (MIC) amounted to 8 µg/mL (≈ 15.6 µM) in [9]; 32 µg/mL (≈ 62.6 µM) in assay [1]; 2 µg/mL (≈ 3.91 µM) in assay [2]; 0.5 µg/mL (≈ 0.977 µM) in assay [3]; 8 µg/mL (≈ 15.6 µM) in [4]; 32 µg/mL (≈ 62.6 µM) in [5]. Besides, the MIC in assay [6] was determined as 8 µg/mL (≈ 15.6 µM); in assay [7] it was 0.25 µg/mL (≈ 0.489 µM).
`O=c1ccc2ncc(F)c3c2n1C[C@@]3(O)CC12CCC(NCc3ccc4c(n3)NCCO4)(CC1)CO2`: the MIC was 4 µg/mL (≈ 8.1 µM) in assay [9]; 32 µg/mL (≈ 64.8 µM) in [1]; 8 µg/mL (≈ 16.2 µM) in assay [2]; 1 µg/mL (≈ 2.03 µM) in assay [3]; 8 µg/mL (≈ 16.2 µM) in [4]; 32 µg/mL (≈ 64.8 µM) in assay [5]. Moreover, the MIC in assay [6] was found to be 16 µg/mL (≈ 32.4 µM); in assay [7] it was 2 µg/mL (≈ 4.05 µM).
As for `O=c1ccc2ncc(F)c3c2n1C[C@@]3(O)CC12CCC(NCc3ccc4c(n3)OCCO4)(CC1)CO2`, the MIC in assay [9] amounted to 32 µg/mL (≈ 64.7 µM); in [1], 32 µg/mL (≈ 64.7 µM); in assay [2] it was 8 µg/mL (≈ 16.2 µM); in [3], 2 µg/mL (≈ 4.04 µM); in [4], 32 µg/mL (≈ 64.7 µM); in assay [5] it was 32 µg/mL (≈ 64.7 µM). The figures for the minimum inhibitory concentration (MIC) in [6] and in assay [7] were 32 µg/mL (≈ 64.7 µM) and 2 µg/mL (≈ 4.04 µM), respectively.
